# Measured values taken from US7060822B1, “2-pyrazolin-5-ones” (Abbott GmbH & Co. KG, priority 1999, dated 2006).
row,SMILES,melting point
1,"CCOC1=NNC(=O)C1=Cc1ccc(Cl)[nH]1 [Example 113, 4-[(5-Chloropyrrol-2-yl)methylene]-3-ethoxy-2-pyrazolin-5-one]",170 to 172 °C
2,"Cc1[nH]c(C=C2C(=O)NN=C2c2cnccn2)c(C)c1C(=O)O [Example 118, 4-[(4-Carboxy-3,5-dimethylpyrrol-2-yl)methylene]-3-pyrazinyl-2-pyrazolin-5-one]",225 to 228 °C
3,"Cc1[nH]c(C=C2C(=O)NN=C2C2CC2)c(C)c1C(=O)OCCN(C)C [Example 119, 3-Cyclopropyl-4-{[3,5-dimethyl-4-(2-dimethylaminoethyloxycarbonyl)pyrrol-2-yl]methylene}-2-pyrazolin-5-one]",172 to 174 °C
4,"Cc1[nH]c(C=C2C(=O)NN=C2c2cnccn2)c(C)c1C(=O)OCCN(C)C [Example 120, 4-{[3,5-Dimethyl-4(2-dimethylaminoethyloxycarbonyl)pyrrol-2-yl]methylene}-3-pyrazinyl-2-pyrazolin-5-one]",223 to 225 °C
5,"Cc1[nH]c(C=C2C(=O)NN=C2c2cnccn2)c(C)c1CN(C)C [Example 121, 4-[(3,5-Dimethyl-4-dimethylaminomethylpyrrol-2-yl)methylene]-3-pyrazinyl-2-pyrazolin-5-one]",220 to 222 °C
6,"Cc1[nH]c(C=C2C(=O)NN=C2c2cnccn2)c(C)c1CN(C)C.O=C(O)/C=C\C(=O)O [Example 122, 4-[(3,5-Dimethyl-4-dimethylaminomethylpyrrol-2-yl)methylene]-3-pyrazinyl-2-pyrazolin-5-one maleate]",206 to 210 °C
7,"Cc1cc(C)c(C=C2C(=O)NN=C2c2ccccn2)[nH]1 [Example 124, 4-[(3,5-Dimethylpyrrol-2-yl)methylene]-3-(2-pyridyl)-2-pyrazolin-5-one]",228 to 230 °C
8,"CCc1c(C)[nH]c(C=C2C(=O)NN=C2c2ccccn2)c1C [Example 125, 4-[(3,5-Dimethyl-4-ethylpyrrol-2-yl)methylene]-3-(2-pyridyl)-2-pyrazolin-5-one]",184 to 186 °C
9,"Cc1cc(C)c(C=C2C(=O)NN=C2c2ccco2)[nH]1 [Example 127, 4-[(3,5-dimethylpyrrol-2-yl)methylene]-3-(2-furyl)-2-pyrazolin-5-one]",235 to 237 °C
10,"Cc1[nH]c(C=C2C(=O)NN=C2c2cnccn2)c(C)c1CN1CCOCC1 [Example 128, 4-[(3,5-dimethyl-4-morpholinomethylpyrrol-2-yl)methylene]-3-pyrazinyl-2-pyrazolin-5-one]",274 to 277 °C
11,"Cc1cc(C)c(C=C2C(=O)NN=C2c2cccs2)[nH]1 [Example 129, 4-[(3,5-dimethylpyrrol-2-yl)methylene]-3-(2-thienyl)-2-pyrazolin-5-one]",235 to 237 °C

# Continued, values first:
row,melting point,SMILES
1,237 to 239 °C,"CCOC1=NNC(=O)C1=Cc1cc(Cl)c[nH]1 [Example 111, 4-[(4-Chloropyrrol-2-yl)methylene]-3-ethoxy-2-pyrazolin-5-one]"
2,242 to 244 °C,"CCOC1=NNC(=O)C1=Cc1cc(Br)c[nH]1 [Example 112, 4-[(4-Bromopyrrol-2-yl)methylene]-3-ethoxy-2-pyrazolin-5-one]"
3,220 °C (dec.),"O=C1NN=C(C2CC2)C1=Cc1cc(Cl)c[nH]1 [Example 114, 4[(4-Chloropyrrol-2-yl)methylene]-3-cyclopropyl-2-pyrazolin-5-one]"
4,210 °C (dec.),"O=C1NN=C(C2CC2)C1=Cc1cc(Br)c[nH]1 [Example 115, 4-[(4-Bromopyrrol-2-yl)methylene]-3-cyclopropyl-2-pyrazolin-5-one]"
5,192 to 194 °C,"CCOC(=O)c1c[nH]c(C=C2C(=O)NN=C2C2CC2)c1 [Example 130, 3-Cyclopropyl-4-[(4-ethoxycarbonylpyrrol-2-yl)methylene]-2-pyrazolin-5-one]"
6,278 to 280 °C,"Cc1[nH]c(C=C2C(=O)NN=C2C2CC2)c(C)c1CNC(=O)C(F)(F)F [Example 131, 3-Cyclopropyl-4-[(3,5-dimethyl-4-trifluoroacetamidomethylpyrrol-2-yl)methylene]-2-pyrazolin-5-one]"
